From US20250367209A1 (SOUTHERN RESEARCH INSTITUTE, priority 2022, published 2025)
Where two headings read alike, the source gives them in different places.

Experiments:
[1] = target: Tau-FynSH3 interaction (Homo sapiens (Human), UniProt P10636); assay: Tau-FynSH3 AlphaScreen; format: binding
Source text: Human Fyn-SH3 domain with GST-tag at the N-terminus and a Strep-tag II ([…]) at the C-terminus (GST-Fyn-SH3-Strep) was cloned into pPR-IBA1 vector (IBA Lifesciences) (Cochran, et al. (2014) J. Biomol. Screen. 19, 1338-1349). Codon-optimized human 4R2N Tau for E. coli expression with a Strep-tag II at the C-terminus (His-Tau-Strep) was cloned into pET-28a(+) vector (Novagen). The constructs were transformed into E. coli BL-21(DE3) competent cells (Novagen). For GST-Fyn-SH3-Strep purification, a single colony was inoculated in Luria-Bertani (LB) broth at 37° C. overnight. 10 mL cell culture was added into 500 mL LB medium and cultured at 37° C. 0.5 mM Isopropyl β-D-1-thiogalactopyranoside (IPTG) was added into the culture when OD600 reached 0.7. Cells were further cultured at 25° C. for 4 hours and harvested. Cell pellet was resuspended in lysis buffer (20 mM Tris pH 7.9, 300 mM NaCl, 1 mM TCEP) with 1 tablet of EDTA-free protease inhibitors (ThermoFisher) and 1 mg/ml lysozyme. Cells were disrupted by sonication and debris was removed by centrifugation at 9500 rpm for 1 hour. Supernatant was loaded onto a glutathione-sepharose column (Cytiva). The column was washed in lysis buffer and protein eluted in lysis buffer containing 25 mM reduced glutathione. For His-Tau-Strep protein purification, cells were inoculated in LB broth medium and cultured at 37° C. overnight. A 10 mL overnight culture was added to 500 mL of auto-induction medium (Studier, F. W. (2005) Protein Expr Purif 41, 207-34) and cells were cultured at 37° C. for about 5 hours. The temperature was lowered to 18° C., and cells were cultured overnight. Cells were harvested and resuspended in lysis buffer with 20 mM imidazole, protease inhibitors, and lysozyme. Cells were disrupted by sonication and cell pellets were spun down at 9500 rpm for 1 hour. Supernatant was loaded onto Ni-NTA column (Cytiva) and the column was washed in lysis buffer with 20 mM imidazole. His-Tau-Strep protein was eluted in lysis buffer containing 400 mM imidazole. Both eluted GST-Fyn-SH3-Strep and His-Tau-Strep protein solutions were passed through G-25 desalting column (Cytiva) with lysis buffer and loaded onto high capacity Strep-Tactin column (IBA Lifesciences). The columns were washed in Buffer W (IBA Life sciences) and proteins were eluted in Buffer E (IBA life sciences). The eluted proteins were passed through G-25 desalting column again. Both GST-Fyn-Strep and His-Tau-Strep proteins were concentrated and diluted 1:1 in ethylene glycol as a cryoprotectant for storage at −80° C.
AlphaScreen was conducted with 10 µg/mL of glutathione donor beads (PerkinElmer, Waltham, MA) and nickel chelate acceptor beads (PerkinElmer) in 10 mM Bis-Tris (pH 7.0), 1 mM TCEP, 0.02% casein, and 0.1% Tween-20. Compounds were plated first followed by addition of one the proteins at 600 nM and incubation for 30 min. The second protein was added and incubated for 30 mn, then the beads were added simultaneously and the final mixture was incubated for 2 hours. Experiments were conducted in 384-well plates (6007290; PerkinElmer) and results were read on a PHERAstar plate reader (BMG Labtech, Cary, NC).
˜50,000 compounds from the Enamine and Southern Research libraries were screened to identify Tau-FynSH3 interaction inhibitors using an AlphaScreen assay (Cochran, et al. (2014) J. Biomol. Screen. 19, 1338-1349). Compounds that were >3 standard deviations above mean inhibition were selected, yielding 1,852 hits (FIG. 1A). […]. These 39 compounds were tested in a live-cell BRET assay to measure Tau-Fyn interaction in cells. […]. Screen. 19, 1338-1349).

[2] = Solubility; format: physicochemical; conditions: for ADME Sol (μM): Table 3; for Solubility: Table 2
[3] = Metabolic stability in mouse liver microsomes; format: in vitro ADME; conditions: for half-life: mouse, liver microsomes, Table 3, read-out: ADME t1/2 (min): MLMt1/2
[4] = Metabolic stability in human liver microsomes; format: in vitro ADME; conditions: Table 3, read-out: ADME t1/2 (min): HLMt1/2
Source text: (§1) A computational analysis of the top five hits was then completed to assess the physical attributes of the compounds emerging from the HTS. The target profile for drug-like properties included evaluation of molecular weight (MW), total polar surface area (PSA, the surface sum of all polar atoms on the molecule), solubility, metabolic stability, and partition coefficient (LogD). In general, MW<[…] and PSA <70 Å^2 were targeted, which generally allows for blood-brain barrier (BBB) permeability. Compounds with PSA >100 A^2 are generally poor at permeating cell membranes. Solubility was targeted at >10 μM at pH 7.4 and 40-60% of compound remaining after 60 minutes of incubation in mouse or human liver microsomes (an indicator of compound stability after first-pass metabolism). LogD is the log of the ratio of concentrations of a compound in two immiscible solvents at equilibrium. Values ranging from 2-4 were targeted, typical for CNS drugs. Based on these criteria, compound no. 55 was selected as the top hit for optimization. Compound no.

[5] = Partition coefficient (LogD); format: physicochemical; conditions: Table 3; read-out: ADME LogD
Source text: as §1

[6] = tested on: primary rat neurons; assay: Modified MTT assay of Aβ toxicity in primary neurons; format: cell-based; conditions: compound 0.3, 3 or 15 μM, 90-minute pretreatment, 2.5 μM Aβ, 24 hours
Source text: Primary neuron cultures: All animal procedures were approved by the Institutional Animal Care and Use Committee at the University of Alabama at Birmingham (UAB). As before (Rush, et al. (2020) Neurobiol Dis 134, 104668; Voskobiynyk, et al. (2020) eLife 9, e57354), primary rat neurons were isolated from timed-pregnant Sprague-Dawley rats. Briefly, dams were euthanized with isoflurane anesthesia asphyxiation, and hippocampal tissue was isolated from E19 embryos in Hibernate E, then digested in papain for 10 minutes at 37° C. Neurons were triturated into a single cell suspension in Neurobasal supplemented with B-27, L-Glutamine, and 10% FBS, then plated in 96-well plates coated with PDL and laminin at 30,000 neurons per well in 200 uL medium or in 24-well coated plates with or without coverslips at 50,000 per well. Cultures were maintained at 37° C. with 5% CO2. Twenty-four hours after plating (DIV1), two 50% media changes with Neurobasal plus B-27 and L-Glutamine without FBS, and 5 μM cytosine β-D-arabinofuranoside was added to prevent glial proliferation. 50% media changes were performed at DIV7 and DIV14 with serum-free supplemented Neurobasal and experiments were started at DIV19.
Aβ oligomer preparation: As before (Rush, et al. (2020) Neurobiol Dis 134, 104668), lyophilized recombinant Aβ42 was dissolved in HFIP, dried overnight, then stored at −20° C. until oligomerization. To oligomerize, Aβ was dissolved in DMSO to 1 mM, then diluted to 100 µM in PBS, then sonicated and left on ice for 24 hours. Immediately prior to use, Aβ was centrifuged at 4° C. for 10 minutes at 14,000×g. Vehicle was prepared as well in identical fashion except lacking the Aβ peptide.
Aβ toxicity assays: The modified MTT and MAP2 assays were adapted from a recent study (Rush, et al. (2020) Neurobiol Dis 134, 104668). Briefly, at DIV19, media on the neurons was reduced to […], then compound was added to final concentration of 0 μM, 0.3 μM, 3 μM, or 15 μM with even amounts of DMSO. After 90-minute pretreatment with compound, 2.5 μM Aβ was added.
The modified MTT assay was performed 24 hours after Aβ application. 100 μM MTT was applied to neurons and incubated at 37° C. for one hour. Media was removed, then replaced with 15 μL 1.6% Tween20 in PBS and incubated on a shaker at 100 rpm for 5 minutes. The Tween was then removed and transferred to a 384-well clear-bottom plate and replaced with 15 μL isopropanol. Plates were again agitated for 5 minutes at RT, then isopropanol was transferred to the 384-well plate. Absorbance was then read at 590 nm on a plate reader, with 660 nm used as a reference. The ratio of Tween soluble MTT to isopropanol soluble (Tween-insoluble) MTT was calculated for each sample, then normalized to the vehicle group average.

[7] = target: Tau-Fyn interaction (Homo sapiens (Human), UniProt P10636); assay: Tau-Fyn PLA screening in HEK-293 cells; format: cell-based; conditions: compound 15 μM, 24 hours
Protocol: Tau-Fyn PLA screening in HEK-293 cells: For Tau-Fyn PLA in HEK-293 cells, we used the same plasmids as before (Rush, et al. (2020) Neurobiol Dis 134, 104668): human 4R2N Tau with an N-terminal mKate2 tag in a pcDNA3.1 vector and human Fyn with an N-terminal Myc tag in a pCMV-Sport6 vector grown in Stellar E. coli. HEK-293 cells were plated on coverslips coated with PDL and laminin in a 24-well plate in DMEM supplemented with 10% FBS and 1% PenStrep. Cells were transfected with 125 ng of Tau-mKate2 and Fyn plasmids with 1.5 μL Fugene in plain DMEM. After 24 hours, compound was applied at 15 μM. Twenty-four hours after application, cells were fixed. PLA protocol was the same as above except for different primary antibodies (Tau5 1:500, Fyn3 1:250). After image acquisition, PLA density was calculated as PLA puncta (as above) divided by cell area to account for differences in confluency. Cell area was defined with ImageJ as % Area after theresholding Tau-mKate2 fluorescence because it filled the cells evenly. Puncta/cell area was then normalized to vehicle-treated slides from that experiment.

[8] = Table 3, read-out: Alpha screen IC50
[9] = Table 2, Tau-FynSH3 inhibitory activity in the AlphaScreen, read-out: IC50

Sequence of Tau-FynSH3 interaction (P10636 other isoform, or with tags, fused parts or gaps): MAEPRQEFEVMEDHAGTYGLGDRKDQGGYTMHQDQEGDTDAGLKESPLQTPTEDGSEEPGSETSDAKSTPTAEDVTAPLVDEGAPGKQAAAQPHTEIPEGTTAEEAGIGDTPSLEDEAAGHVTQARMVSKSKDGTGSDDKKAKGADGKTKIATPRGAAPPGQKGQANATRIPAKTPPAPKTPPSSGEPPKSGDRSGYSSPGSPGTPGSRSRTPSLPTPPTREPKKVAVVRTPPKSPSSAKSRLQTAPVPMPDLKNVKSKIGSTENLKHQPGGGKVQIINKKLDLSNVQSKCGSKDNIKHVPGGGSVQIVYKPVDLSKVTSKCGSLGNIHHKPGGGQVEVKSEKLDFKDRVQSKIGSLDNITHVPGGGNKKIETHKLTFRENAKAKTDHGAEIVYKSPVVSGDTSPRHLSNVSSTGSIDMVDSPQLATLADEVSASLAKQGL
Sequence of Tau-Fyn interaction (P10636 other isoform, or with tags, fused parts or gaps): as above

For `O=C(CCN1C(=O)CSc2cc(F)ccc21)Nc1nnc(-c2ccccn2)[nH]1` [compound 7, 3-(7-FLUORO-3-Oxo-2H-BENZO[B][1,4]THIAZIN-4(3H)-YL)-N-(5-(PYRIDIN-2-YL)-4H-1,2,4-TRIAZOL-3-YL)PROPANAMIDE], the IC50 [1, 8] was 1920 nM, the “ADME Sol (μM)” value [2] was “Sol = 69 μM” and the half-life [3] was 22 min. For the same compound, the half-life [4] was 78 min and the logD [5] was 2.
For `O=C(CCN1C(=O)CSc2cc(F)c(F)cc21)Nc1nnc(-c2ccccn2)[nH]1` [compound 9, 3-(6,7-DIFLUORO-3-OXO-2H-BENZO[B][1,4]THIAZIN-4(3H)-YL)-N-(5-(PYRIDIN-2-YL)-4H-1,2,4-TRIAZOL-3-YL)PROPANAMIDE], the IC50 [1, 8] was 2970 nM, the “ADME Sol (μM)” value [2] was “Sol = 81 μM” and the half-life [3] was 20 min. It also gave a half-life [4] of 53 min and a logD [5] of 1.8.
With `O=C(CN1C(=O)CSc2ccc(F)cc21)Nc1nnc(-c2ccccn2)[nH]1` [compound 15, 2-(6-FLUORO-3-OXO-2H-BENZO[B][1,4]THIAZIN-4(3H)-YL)-N-(5-(PYRIDIN-2-YL)-4H-1,2,4-TRIAZOL-3-YL)ACETAMIDE] the IC50 [1, 8] was 1080 nM, the “ADME Sol (μM)” value [2] was “Sol = 65 μM” and the half-life [3] was 53 min. The half-life [4] was 238 min and the logD [5] was 1.8.
For `O=C(CN1C(=O)CSc2ccc(Cl)cc21)Nc1nnc(-c2ccccn2)[nH]1` [compound 16, 2-(6-CHLORO-3-OXO-2H-BENZO[B][1,4]THIAZIN-4(3H)-YL)-N-(5-(PYRIDIN-2-YL)-4H-1,2,4-TRIAZOL-3-YL)ACETAMIDE], the IC50 [1, 8] was 2580 nM, the “ADME Sol (μM)” value [2] was “Sol = 9 μM” and the half-life [3] was 26 min. For the same compound, the half-life [4] was 74 min and the logD [5] was 2.3.
Work on `O=C(CN1CCSc2cc(Cl)ccc21)Nc1nnc(-c2ccccn2)[nH]1` [compound 58] yielded a Solubility [2] of less than 1 µM.
For `Cc1ccc2c(c1)SCCN2CC(=O)Nc1nnc(-c2ccccn2)[nH]1` [compound 60], the Solubility [2] was less than 1 µM.
With `O=C(CN1CCSc2cc(C(=O)O)ccc21)Nc1nnc(-c2ccccn2)[nH]1` [compound 64] the IC50 [1, 9] was less than 200 nM and the “MLM t1/2” value ([3]; Table 2) was greater than 300 min.
`O=C(CCN1C(=O)CCc2ccccc21)Nc1nnc(-c2ccccn2)[nH]1` [compound no. 3, 3-(2-Oxo-3,4-DIHYDROQUINOLIN-1(2H)-YL)-N-(5-(PYRIDIN-2-YL)-4H-1,2,4-TRIAZOL-3-YL)PROPANAMIDE] showed an IC50 [1, 9] greater than 100000 nM.
For `O=C(CCN1C(=O)CSc2ccccc21)Nc1ncc(-c2ccccn2)[nH]1` [compound no. 5, 3-(3-Oxo-2H-BENZO[B][1,4]THIAZIN-4(3H)-YL)-N-(5-(PYRIDIN-2-YL)-1H-IMIDAZOL-2-YL)PROPANAMIDE], the IC50 [1, 8] was 3240 nM.
For `O=C(CCN1C(=O)CSc2ccccc21)Nc1ccc(-n2cncn2)cc1` [compound no. 37, N-(4-(1H-1,2,4-TRIAZOL-1-YL)PHENYL)-3-(3-oxo-2,3-DIHYDRO-4H-BENZO[B][1,4]THIAZIN-4-YL)PROPANAMIDE], the “AlphaScreen activity (in words)” value [1] was “no observed AlphaScreen activity”, the IC50 [1, 9] was greater than 100000 nM and the “Alpha screen IC50 (μM)” value ([1]; Table 3) was “Inactive”. The “Aβ toxicity / Aβ-induced membrane trafficking dysfunction, modified MTT assay” value [6] was “did not ameliorate Aβ toxicity”.
With `O=C(CN1C(=O)CSc2ccccc21)Nc1nnc(-c2ccccn2)[nH]1` [compound no. 56] the “improvement in activity in the Tau-FynSH3 AlphaScreen” value ([1]; compared to compound no. 55) was “five-fold improvement in activity” and the IC50 ([1]; read-out: IC50 in the Tau-FynSH3 AlphaScreen) was 840 nM.
In the case of `O=C(CCN1CCSc2ccccc21)Nc1nnc(-c2ccccn2)[nH]1` [compound no. 57], the “Aβ toxicity / Aβ-induced membrane trafficking dysfunction, modified MTT assay” value [6] is reported as “did not” and the “Tau-Fyn interaction in cells, Tau-Fyn PLA in HEK-293 cells” value [7] is reported as “did not reduce Tau-Fyn interaction in cells”.
